This is an account of results in patent US6506431B2, “Spore germination inhibitor and food containing the same” (Ajinomoto Co., Inc., priority 2000, dated 2003).

A short description of series [1]: Solubility of CPC (properties). The series is classed as physicochemical.
The subject of series [2] is Bacillus subtilis spores. Kind of series: Spore germination-inhibitory effects by CPC, AGFK germinator (Example 2). Format: cell-based. Conditions: 1 mg/ml CPC, 37° C., 2 hours. The procedure: The germination-inhibitory activity was measured as follows: ½ volume of a sample was allowed to react with ½ volume of spore suspension (0.2 mg/ml Bacillus subtilis spores, 40 mM Tris HCl, pH 7.5) containing germinator (20 mM L-asparagine, 2 mM D-glucose, 2 mM D-fructose, 20 mM KCl) at 37° C. The spores gradually darkened with germination increase, and turbidity of the suspension decreased. Thereupon, the turbidity of the spore suspension was measured at 600 nm using a spectrophotometer, and a germination rate was determined by calculating the rate of decrease of turbidity. In order to examine the germination-inhibitory effects of CPC, the following tests were conducted. Spore suspension containing 0.1 mg/ml Bacillus subtilis spores, 20 mM Tris.HCl, pH 7.5. Spore suspension as above further containing 10 mM L-asparagine, 1 mM D-glucose, 1 mM D-fructose and 10 mM KCl as germinator. Spore suspension as above containing the germination (Test Group 2) and further containing 1 mg/ml CPC. The above spore suspensions were allowed to react at 37° C. for 2 hours, and spore germination conditions were examined. The turbidity of each test group after 2 hours was measured at 600 nm using a spectrophotometer. In the test group 2, the turbidity of the spore suspension was decreased remarkably compared with the start of the reaction, and sufficient germination of spores was found. […]

In series [3] the test system is Bacillus subtilis spores. Nature of the series: Germination inhibition by combination of CPC and D-alanine in sufficient nutrients (Example 3). Format: cell-based. To be noted: 1 mg/ml each; for variation of the turbidity of the spore suspension at 600 nm (germination): 25 g/l Bacto-LB broth plus AGFK germinator, 37° C., 2 hours; for inhibition at 1000 µg/mL: Bacillus subtilis, 0.5 h, LB broth plus AGFK, variation of OD600 for 30 minutes, test group 1 = 100%, test group 2 = 0%, read-out: germination inhibition rate. The procedure:
Thereupon, in order to examine germination-inhibitory effects by the combination of CPC and D-alanine which is a known germination-inhibitory substance, the following test groups were prepared. Spore suspension containing 0.1 mg/ml Bacillus subtilis spores, 20 mM Tris.HCl, pH 7.5. Spore suspension containing 0.1 mg/ml Bacillus subtilis, 25 g/l Bacto-LB broth, Miller (DIFCO) as sufficient nutrients, and 10 mM L-asparagine, 1 mM D-glucose, 1 mM D-fructose and 10 mM KCl (AGFK system) as germinator. Spore suspension as above containing the sufficient nutrients (Test Group 2) and further containing 1 mg/ml CPC. Spore suspension as above containing the sufficient nutrients (Test Group 2) and further containing 1 mg/ml D-alanine. Spore suspension as above containing the sufficient nutrients (Test Group 2) and further containing 1 mg/ml CPC and 1 mg/ml D-alanine. The above spore suspensions were allowed to react at 37° C. for 2 hours, and spore germination conditions were examined. The variation of the turbidity of each test group was measured through the above reaction at 600 nm using a spectrophotometer. […] After 2 hours, the turbidity became the same turbidity as the initial one, and growth subsequest to the germination (vegetative growth) was observed. […] Each inhibition rate was calculated based on the variation of OD600 value for 30 minutes from the start of measurement wherein the germination inhibition rate in the test group 1 is assigned 100% and that in the test group 2 is assigned 0%.

Regarding `NC(=O)c1cccc(C(=O)O)n1` [CPC, 6-carbamoyl-2-pyridine carboxylic acid], the solubility entry in series [1] is “Soluble in water, particularly alkaline water, and organic solvent, such as pyridine and DMSO”. Besides, the “spore germination observed by phase-contrast microscope” value with Bacillus subtilis spores [2] (AGFK germinator) is on record as “germination of spores was not recognized”. The “spore germination by turbidity of the spore suspension at 600 nm” value in the series on Bacillus subtilis spores [2] (germinator 10 mM L-asparagine, 1 mM D-glucose, 1 mM D-fructose, 10 mM KCl) is reported as “germination was not observed”. In addition, in the series on Bacillus subtilis spores [3], the “variation of the turbidity of the spore suspension at 600 nm (germination)” value is “growth subsequent to the germination was observed” and the inhibition at 1000 µg/mL was determined as 9%.

With `C[C@@H](N)C(=O)O` [D-alanine, reference compound], in the series on Bacillus subtilis spores [3], the “variation of the turbidity of the spore suspension at 600 nm (germination)” value is on record as “growth subsequent to the germination was observed” and the inhibition at 1000 µg/mL amounted to 16%.

A word on the inhibition: it is the share of the control response that was lost under treatment.
